The values that follow come from patent US20220117945A1, “ISOXAZOLE CARBOXAMIDE COMPOUNDS AND USES THEREOF” (NOVARTIS AG, priority 2017, published 2022).

For this assay, the system named is Atoh1 expression in mouse cerebellar neural precursor cells. Briefly: Atoh1 induction assay in mouse cerebellar neural precursor cells (NPCs), Atoh1-GFP reporter. The class given is cell-based. Conditions: 10 doses 50 μM to 200 nM, 72 hours treatment, DMSO control = 1, more than 5 considered significant, read-out: fold difference (maximum fold difference of GFP average intensity in cell nuclei over the DMSO control). Here is the method: Compounds of the present disclosure were assessed for their ability to increase the Atoh1 expression in mouse cerebellar neural precursor cells. The ability of compounds of the present disclosure to induce new hair cell formation was assessed in ex vivo hair cell induction assay using 6-day-postnatal mouse cochlea explants with hair cell damage.
Atoh1 Induction Assay in Mouse Cerebellar Neural Precursor Cells (NPCs)
Atoh1 induction assay was conducted with in vitro cultured cerebellar neural precursor cells isolated from neonatal transgenic Atoh1-GFP mice. Atoh1 expression is mainly regulated by the enhancer, and the nuclear GFP was driven by the cloned enhancer sequence at 3′ of Atoh1 which had high conservation among mammalians. So Atoh1 induction could be reflected by GFP activation in cerebellar neural precursor cells (Helms et al., Development 2000; 127: 1185-1196; Lumpkin et al., Gene Expression Patterns 2003; 3: 389-395). Postnatal 3 days pups were dissected for cerebellum tissue isolation. The cerebellum tissue was cut into small pieces, and dissociated with 0.05% Trypsin for about 10 minutes at 37° C., and then filtered with a 70 uM cell strainer. The cells were cultured as neuropsheres for the first 2 days in ultra-low attachment dish/well-plate with DMEM/F12+1% N2 &2% B27 with 1% P/S, 20 ng/ml rhFGF2 and 20 ng/ml rhEGF (R&D Systems). Then the spheres were plated to the matrigel (1:30 diluted in DMEM/F12)-coated tissue culture dish for monolayer culture. After 4.5-5.5 days culture in vitro (DIV), cells were dissociated with 0.05% trypsin into single cells, and frozen after cell number calculation.
The cerebellar neural precursor cells (NPCs) were re-thawed from stock and cultured for another 2 days before used for Atoh1 induction assay. On the first day of assay, NPCs were seeded into matrigel-coated 384 well plates (Black view-plate, PE) at 2500 cells/well. After over-night culture, the NPCs were treated with representative compounds of the present disclosure with 1:2 serial dilutions for 10 doses, from 50 μM to 200 nM, with DMSO as negative control. After 72 hours treatment without medium change, the cells were fixed with 4% formalin for staining. Assay plates were stained with GFP antibody (Abcam, #13970, 1:1000) to amplify endogenous GFP signal and then read by Cellomics.
`O=C(NCCCCCN1CC(F)C1)c1cc(-c2ccc(F)cc2)on1` [Example 44]: the maximal fold induction amounted to 34.7.

Consider `O=C(NCCCCCN1CCCC(O)C1)c1cc(-c2cccs2)on1` (centres unmarked) [Example 57], for which the maximal fold induction was 15.4. As for `CC(C)C[C@H]1CN(CCCCCNC(=O)c2cc(-c3cccs3)on2)CCN1` [Example 6, (S)—N-(5-(3-isobutylpiperazin-1-yl)pentyl)-5-(thiophen-2-yl)isoxazole-3-carboxamide], the figure is 9; as for `CCNC(=O)C1CN(CCCCCNC(=O)c2cc(-c3ccc(F)cc3)on2)C1` [Example 86, N-(5-(3-(Ethylcarbamoyl)azetidin-1-yl)pentyl)-5-(4-fluorophenyl)isoxazole-3-carboxamide], 36.7; as for `O=C(NCCCCCN1CC(C(=O)NC2CC2)C1)c1cc(-c2cccs2)on1` [Example 62], 26.6. With `COC1CN(CCCCCNC(=O)c2cc(-c3ccc(F)cc3)on2)C1` [Example 68], the maximal fold induction was 22.3. As for `O=C(NCCCCCN1CC(C(=O)NCCO)C1)c1cc(-c2cccs2)on1` [Example 78, N-(5-(3-((2-Hydroxyethyl)carbamoyl)azetidin-1-yl)pentyl)-5-(thiophen-2-yl)isoxazole-3-carboxamide], the figure is 23.1; as for `O=C(NCCCCCN1CCCC(F)C1)c1cc(-c2cccs2)on1` (centres unmarked) [Example 50], 23.4. With `CS(=O)(=O)NC1CN(CCCCCNC(=O)c2cc(-c3cccs3)on2)C1` [Example 19, N-(5-(3-(Methylsulfonamido)azetidin-1-yl)pentyl)-5-(thiophen-2-yl)isoxazole-3-carboxamide], the maximal fold induction is 31.7. As for `O=C(NCCCCCN1CC(C(=O)NCCCO)C1)c1cc(-c2cccs2)on1` [Example 81, N-(5-(3-((3-Hydroxypropyl)carbamoyl)azetidin-1-yl)pentyl)-5-(thiophen-2-yl)isoxazole-3-carboxamide], the maximal fold induction was 33. Take `O=C(NCCCCCN1CC(c2ncc[nH]2)C1)c1cc(-c2cccs2)on1` [Example 95, N-(5-(3-(1H-imidazol-2-yl)azetidin-1-yl)pentyl)-5-(thiophen-2-yl)isoxazole-3-carboxamide]: the maximal fold induction amounted to 21.8. In the case of `O=C1CCN(CCCCCNC(=O)c2cc(-c3cccs3)on2)C1` [Example 26, N-(5-(3-Oxopyrrolidin-1-yl)pentyl)-5-(thiophen-2-yl)isoxazole-3-carboxamide], the maximal fold induction was 7.1. Take `O=C(NCCCCCN1CCNCC1)c1cc(-c2cccs2)on1` [Example 3, N-(5-(Piperazin-1-yl)pentyl)-5-(thiophen-2-yl)isoxazole-3-carboxamide]: the maximal fold induction was determined as 21. As for `CC(=O)N1CCN(CCCCCNC(=O)c2cc(-c3ccc(F)cc3)on2)CC1` [Example 30], the maximal fold induction turned out to be 13.4.

With `CNC(=O)C1CN(CCCCCNC(=O)c2cc(-c3ccc(F)cc3)on2)C1` [Example 85, 5-(4-Fluorophenyl)-N-(5-(3-(methylcarbamoyl)azetidin-1-yl)pentyl)isoxazole-3-carboxamide], the maximal fold induction was found to be 20.7. As for `CNC(=O)NC1CN(CCCCCNC(=O)c2cc(-c3cccs3)on2)C1` [Example 18, N-(5-(3-(3-Methylureido)azetidin-1-yl)pentyl)-5-(thiophen-2-yl)isoxazole-3-carboxamide], the figure is 17.6; as for `N#CCNC(=O)C1CN(CCCCCNC(=O)c2cc(-c3ccc(F)cc3)on2)C1` [Example 88, N-(5-(3-((Cyanomethyl)carbamoyl)azetidin-1-yl)pentyl)-5-(4-fluorophenyl)isoxazole-3-carboxamide], 9.3; as for `O=C(NCCCCCN1CC(C(=O)NC2CCCC2O)C1)c1cc(-c2cccs2)on1` (centres unmarked) [Example 83, N-(5-(3-((2-Hydroxycyclopentyl)carbamoyl)azetidin-1-yl)pentyl)-5-(thiophen-2-yl)isoxazole-3-carboxamide], 34.4.

For `O=C(NCCCCCN1CC(C(=O)N[C@H]2C[C@H](O)C2)C1)c1cc(-c2ccc(F)cc2)on1` [Example 89, 5-(4-Fluorophenyl)-N-(5-(3-(((1,3-trans)-3-hydroxycyclobutyl)carbamoyl)azetidin-1-yl)pentyl)isoxazole-3-carboxamide], the maximal fold induction amounted to 11. On to `O=C(NC1CN(CCCCCNC(=O)c2cc(-c3cccs3)on2)C1)OCCO` [Example 20, 2-Hydroxyethyl (1-(5-(5-(thiophen-2-yl)isoxazole-3-carboxamido)pentyl)azetidin-3-yl)carbamate], for which the maximal fold induction stood at 29.4. As for `O=C(NCCCCCN1CC(C(=O)N[C@H]2C[C@H](O)C2)C1)c1cc(-c2cccs2)on1` [Example 80, N-(5-(3-(((1,3-trans)-3-Hydroxycyclobutyl)carbamoyl)azetidin-1-yl)pentyl)-5-(thiophen-2-yl)isoxazole-3-carboxamide], the figure is 47.2; as for `CNC(=O)NC1CN(CCCCCNC(=O)c2cc(-c3ccc(F)cc3)on2)C1` [Example 23, 5-(4-Fluorophenyl)-N-(5-(3-(3-methylureido)azetidin-1-yl)pentyl)isoxazole-3-carboxamide], 25.7; as for `O=C(NCCCCCN1CCNC(c2ccccc2)C1)c1cc(-c2cccs2)on1` (centres unmarked) [Example 1, N-(5-(3-Phenylpiperazin-1-yl)pentyl)-5-(thiophen-2-yl)isoxazole-3-carboxamide], 22.4. As for `O=C(NCCCCCN1CCC(F)(F)CC1)c1cc(-c2cccs2)on1` [Example 31], the figure is 16. As for `N#CCCNC(=O)C1CN(CCCCCNC(=O)c2cc(-c3ccc(F)cc3)on2)C1` [Example 87, N-(5-(3-((2-Cyanoethyl)carbamoyl)azetidin-1-yl)pentyl)-5-(4-fluorophenyl)isoxazole-3-carboxamide], the figure is 27.8; as for `O=C1CN(CCCCCNC(=O)c2cc(-c3cccs3)on2)CCN1` [Example 37], 13.5; as for `O=C(NCCCCCN1CCCC1)c1cc(-c2cccs2)on1` [Example 7, N-(5-(Pyrrolidin-1-yl)pentyl)-5-(thiophen-2-yl)isoxazole-3-carboxamide], 31. On to `COC(=O)N1CCN(CCCCCNC(=O)c2cc(-c3cccs3)on2)CC1` [Example 24, Methyl 4-(5-(5-(thiophen-2-yl)isoxazole-3-carboxamido)pentyl)piperazine-1-carboxylate], for which the maximal fold induction turned out to be 24. As for `O=C(NCCCCCN1CC(CO)C1)c1cc(-c2ccc(F)cc2)on1` [Example 33], the figure is 26.1; as for `O=C(NCCCCCN1CC2(COC2)C1)c1cc(-c2ccc(F)cc2)on1` [Example 69], 33.5. As for `O=C(NCCCCCN1CC2CC1CN2)c1cc(-c2cccs2)on1` (centres unmarked) [Example 4, N-(5-(2,5-Diazabicyclo[2.2.1]heptan-2-yl)pentyl)-5-(thiophen-2-yl)isoxazole-3-carboxamide], the figure is 30.7; as for `NC(=O)C1CN(CCC(F)(F)CCNC(=O)c2cc(-c3cccs3)on2)C1` [Example 75, N-(5-(3-Carbamoylazetidin-1-yl)-3,3-difluoropentyl)-5-(thiophen-2-yl)isoxazole-3-carboxamide], 20.6.
